We go through 6 compounds from patent US9884819B2, “Tetrahydrocarbazole inhibitors of SIRT1 receptors” (Auspex Pharmaceuticals, Inc., priority 2016, dated 2018).

Data set [1] has as its target T1, CYP1A2 (Homo sapiens, UniProt P05177).
T1 construct: purchased BD Biosciences, San Jose, Calif
T1 sequence (P05177 1-516): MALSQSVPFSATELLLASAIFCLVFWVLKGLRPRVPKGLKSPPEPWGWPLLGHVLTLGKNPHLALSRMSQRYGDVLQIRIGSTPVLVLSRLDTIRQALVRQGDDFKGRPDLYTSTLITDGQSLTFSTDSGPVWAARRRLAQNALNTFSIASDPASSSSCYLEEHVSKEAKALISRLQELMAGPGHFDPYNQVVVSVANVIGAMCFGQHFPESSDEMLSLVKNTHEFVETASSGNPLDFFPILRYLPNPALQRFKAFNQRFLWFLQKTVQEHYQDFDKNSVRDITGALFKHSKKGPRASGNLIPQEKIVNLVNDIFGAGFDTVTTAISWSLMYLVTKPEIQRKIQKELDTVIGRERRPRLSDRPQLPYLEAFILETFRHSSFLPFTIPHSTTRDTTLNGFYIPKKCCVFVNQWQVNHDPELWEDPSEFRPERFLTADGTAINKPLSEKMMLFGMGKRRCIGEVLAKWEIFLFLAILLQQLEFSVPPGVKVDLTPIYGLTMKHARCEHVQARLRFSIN
Nature of the data set: In vitro metabolism using human cytochrome P450 enzymes (CYP1A2). Type of data set: in vitro ADME. To be noted: for Clint / half-life at 0.2 mM: Cyp 1A2; for Percent Remaining (%) 0 min: Cyp 1A2, 0 min; for Percent Remaining (%) 0 min / Percent Remaining (%) 15 min / Percent Remaining (%) 30 min / Percent Remaining (%) 45 min / Percent Remaining (%) 60 min: mean; for Percent Remaining (%) 15 min: Cyp 1A2, 15 min; for Percent Remaining (%) 30 min: Cyp 1A2, 30 min; for Percent Remaining (%) 45 min: Cyp 1A2, 45 min; for Percent Remaining (%) 60 min: Cyp 1A2, 60 min; for half-life at 0.2 mM: human, recombinant CYP1A2 (baculovirus expression system), pH 7.4.

Data set [2] has as its target CYP3A4 (Homo sapiens, UniProt P08684). Nature of the data set: In vitro metabolism using human cytochrome P450 enzymes (CYP3A4). Particulars: for Clint: Cyp 3A4; for Percent Remaining (%) 0 min: Cyp 3A4, 0 min; for Percent Remaining (%) 0 min / Percent Remaining (%) 15 min / Percent Remaining (%) 30 min / Percent Remaining (%) 45 min / Percent Remaining (%) 60 min: mean; for Percent Remaining (%) 15 min: Cyp 3A4, 15 min; for Percent Remaining (%) 30 min: Cyp 3A4, 30 min; for Percent Remaining (%) 45 min: Cyp 3A4, 45 min; for Percent Remaining (%) 60 min: Cyp 3A4, 60 min; for half-life at 0.2 mM: human, pH 7.4.

The conditions of data set [3]: cited from earlier work.
Data set [4] has as its system drosophila model of HD. To be noted: cited from earlier work.
The subject of data set [5] is R6/2 mouse. Particulars: transgenic r6/2 mouse model; cited from earlier work.
Data set [6] in a line: In vitro human liver microsomal stability assay. Type of data set: in vitro ADME. Particulars: for Percent Remaining (%) 0 min / Percent Remaining (%) 15 min / Percent Remaining (%) 30 min / Percent Remaining (%) 60 min / Percent Remaining (%) 120 min: human liver microsomes 2 mg/mL, 1 μM compound; for Percent Remaining (%) 0 min / Percent Remaining (%) 15 min / Percent Remaining (%) 30 min / Percent Remaining (%) 60 min / Percent Remaining (%) 120 min / Percent Remaining (%) 120 min w/o NADPH: mean; for Percent Remaining (%) 120 min w/o NADPH: 120 min without NADPH; for CLint scaled at 1 μM / half-life at 1 μM: pH 7.4. On the procedure:
Human liver microsomal stability assays are conducted at 2 mg per mL liver microsome protein with an NADPH-generating system consisting of NADP (1 mM, pH 7.4), […] (5 mM, pH 7.4), and glucose-6-phosphate dehydrogenase (1 unit/mL). Test compounds were prepared as solutions in DMSO and added to the assay mixture (1 μM, final concentration in incubation) and were incubated at 37±1° C. […] Samples were centrifuged (920×g for 10 min at 10° C.) in 96-well plates. Supernatant fractions were analyzed by LC-MS/MS to determine the percent remaining and estimate the degradation half-life of the test compounds.

The mark [7] stands for this setting: recombinant CYP3A4 (baculovirus expression system).
Setting [8] is: human, single-dose phase, average.
Where [9] appears, read: human, single-dose phase, range.
[10] abbreviates: human liver microsomes, degradation half-life.

Molecules are shown by their SMILES. A value given as a limit tells only on which side of the number the result lay.

Chain of CYP3A4 (P08684 whole entry): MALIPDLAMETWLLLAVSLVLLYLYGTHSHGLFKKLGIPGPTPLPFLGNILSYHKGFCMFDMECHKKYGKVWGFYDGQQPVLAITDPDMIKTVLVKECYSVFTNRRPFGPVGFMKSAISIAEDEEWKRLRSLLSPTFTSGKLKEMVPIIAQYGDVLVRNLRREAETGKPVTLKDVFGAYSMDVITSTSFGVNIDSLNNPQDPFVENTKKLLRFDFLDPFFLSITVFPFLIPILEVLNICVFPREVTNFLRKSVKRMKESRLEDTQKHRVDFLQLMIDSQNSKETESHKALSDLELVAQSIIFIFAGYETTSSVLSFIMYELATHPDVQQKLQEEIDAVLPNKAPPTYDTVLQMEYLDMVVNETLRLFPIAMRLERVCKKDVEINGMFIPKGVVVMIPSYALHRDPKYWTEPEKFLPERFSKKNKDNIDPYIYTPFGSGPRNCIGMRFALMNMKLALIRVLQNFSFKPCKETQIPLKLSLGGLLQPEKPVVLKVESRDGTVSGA

Take `NC(=O)C1CCCc2c1[nH]c1ccc(Cl)cc21` (stereo not shown) [Example 1, 6-chloro-2,3,4,9-tetrahydro-1H-carbazole-1-carboxamide]: in data set [1], the Clint is reported as 0.0002 mL/min/pmol, the “Percent Remaining (%) 0 min” value is 100.00%, the “Percent Remaining (%) 15 min” value is listed as 46.28% and the “Percent Remaining (%) 30 min” value is given as 24.21%. Further, in data set [1], the “Percent Remaining (%) 45 min” value is given as 16.02%, the “Percent Remaining (%) 60 min” value is on record as 11.55% and the half-life at 0.2 mM is 16.9 min. Moreover, in data set [2], the Clint was found to be 0.00013 mL/min/pmol, the “Percent Remaining (%) 0 min” value is reported as 100.00%, the “Percent Remaining (%) 15 min” value came out at 63.43% and the “Percent Remaining (%) 30 min” value came out at 55.02%. In addition, in data set [2], the “Percent Remaining (%) 45 min” value amounted to 54.21% and the “Percent Remaining (%) 60 min” value is listed as 51.13%. Further, the half-life at 0.2 mM in data set [2] (setting [7]) was determined as 52.5 min. Further, in data set [3] (setting [8]), the “Intersubject variability (% CV) in AUC(0,∞), average” value is on record as 56% and the “Intersubject variability (% CV) in Cmax, average” value is recorded as 33%. For the same compound, in data set [3] (setting [9]), the “Intersubject variability (% CV) in AUC(0,∞)” value is reported as 35-71% and the “Intersubject variability (% CV) in Cmax” value is on record as 23-46%. Besides, the “Safety and tolerability in human subjects” value in data set [3] (recent clinical trial (Westerberg et al.)) was “safe and well-tolerated”. Besides, the Neuroprotection result in data set [4] was “neuroprotective”. For the same compound, the “Effects on life span and psychomotor and histological endpoints” value in data set [5] is recorded as “statistically significant effects on life span”. Moreover, in data set [6], the “Percent Remaining (%) 0 min” value was 100%, the “Percent Remaining (%) 15 min” value is listed as 93.37%, the “Percent Remaining (%) 30 min” value is given as 90.46% and the “Percent Remaining (%) 60 min” value is listed as 73.66%. In data set [6], the “Percent Remaining (%) 120 min” value is 52.94%. In data set [6] (human liver microsomes), the “Percent Remaining (%) 120 min w/o NADPH” value is given as 102.02% and the CLint scaled at 1 μM is 13.6 mL/min/kg. For the same compound, the half-life at 1 μM in data set [6] (setting [10]) is 128 min.

Regarding `[2H]C1(C(N)=O)CCCc2c1[nH]c1ccc(Cl)cc21` (stereo not shown) [Example 2, 6-chloro-1-deutero-2,3,4,9-tetrahydro-1H-carbazole-1-carboxamide], in data set [1], the Clint is 0.0002 mL/min/pmol, the “Percent Remaining (%) 0 min” value worked out at 100.00%, the “Percent Remaining (%) 15 min” value was found to be 48.53% and the “Percent Remaining (%) 30 min” value is 27.30%. Further, in data set [1], the “Percent Remaining (%) 45 min” value stood at 17.05%, the “Percent Remaining (%) 60 min” value worked out at 12.99% and the half-life at 0.2 mM came out at 17.7 min. For the same compound, in data set [2], the Clint is 0.00013 mL/min/pmol, the “Percent Remaining (%) 0 min” value stood at 100.00%, the “Percent Remaining (%) 15 min” value worked out at 69.07% and the “Percent Remaining (%) 30 min” value stood at 59.14%. Also, in data set [2], the “Percent Remaining (%) 45 min” value was 54.63% and the “Percent Remaining (%) 60 min” value was 53.05%. Besides, the half-life at 0.2 mM in data set [2] (setting [7]) is 52.8 min. Further, in data set [6], the “Percent Remaining (%) 0 min” value turned out to be 100%, the “Percent Remaining (%) 15 min” value is on record as 100.12%, the “Percent Remaining (%) 30 min” value is given as 85.44% and the “Percent Remaining (%) 60 min” value is listed as 71.84%. For the same compound, the “Percent Remaining (%) 120 min” value in data set [6] was 59.95%. Besides, in data set [6] (human liver microsomes), the “Percent Remaining (%) 120 min w/o NADPH” value worked out at 100.36% and the CLint scaled at 1 μM was found to be 11.4 mL/min/kg. Besides, in data set [6] (setting [10]), the half-life at 1 μM came to 152 min.

Turning to `[2H]C1([2H])c2c([nH]c3ccc(Cl)cc23)C(C(N)=O)C([2H])([2H])C1([2H])[2H]` (stereo not shown) [Example 3, 6-chloro-2,3,4,9-tetrahydro-1H-carbazole-2,2,3,3,4,4-d6-1-carboxamide], in data set [1], the Clint is 0.00019 mL/min/pmol, the “Percent Remaining (%) 0 min” value was found to be 100.00%, the “Percent Remaining (%) 15 min” value was found to be 45.84% and the “Percent Remaining (%) 30 min” value is 26.01%. Also, in data set [1], the “Percent Remaining (%) 45 min” value stood at 17.34%, the “Percent Remaining (%) 60 min” value was found to be 12.82% and the half-life at 0.2 mM amounted to 17.9 min. In data set [2], the Clint is recorded as 0.00010 mL/min/pmol, the “Percent Remaining (%) 0 min” value stood at 100.00%, the “Percent Remaining (%) 15 min” value is given as 69.80% and the “Percent Remaining (%) 30 min” value was determined as 61.49%. Moreover, in data set [2], the “Percent Remaining (%) 45 min” value was determined as 63.89% and the “Percent Remaining (%) 60 min” value is given as 60.39%. The half-life at 0.2 mM in data set [2] (setting [7]) came out at 70.7 min. Besides, in data set [6], the “Percent Remaining (%) 0 min” value came to 100%, the “Percent Remaining (%) 15 min” value came to 92.39%, the “Percent Remaining (%) 30 min” value was determined as 86.96% and the “Percent Remaining (%) 60 min” value is reported as 70.69%. Also, the “Percent Remaining (%) 120 min” value in data set [6] came out at 52.83%. In data set [6] (human liver microsomes), the “Percent Remaining (%) 120 min w/o NADPH” value stood at 96.74% and the intrinsic clearance (CLint scaled) at 1 μM came out at 13.5 mL/min/kg. Also, the half-life at 1 μM in data set [6] (setting [10]) worked out at 128 min.

As for `O=C(c1ccc(F)cc1)C1CCN(CCn2c(=O)[nH]c3ccccc3c2=O)CC1` [Ketanserin], in data set [6] (human liver microsomes), the Clint came out at 39.88 mL/min/kg and the “Percent Remaining (%) 120 min w/o NADPH” value worked out at 97.70%. Moreover, in data set [6], the “Percent Remaining (%) 0 min” value is on record as 100%, the “Percent Remaining (%) 15 min” value was 78.08%, the “Percent Remaining (%) 30 min” value stood at 64.73% and the “Percent Remaining (%) 60 min” value was determined as 44.75%. The “Percent Remaining (%) 120 min” value in data set [6] was 26.52%. In addition, the T1/2 in data set [6] (setting [10]) was 43.58 min.

On to `Cc1ncc2n1-c1ccc(Cl)cc1C(c1ccccc1F)=NC2` [Midazolam], for which, in data set [2], the Clint is reported as over 0.0014 mL/min/pmol, the “Percent Remaining (%) 0 min” value is 100.00%, the “Percent Remaining (%) 15 min” value is on record as “BQL” and the “Percent Remaining (%) 30 min” value is “BQL”. Moreover, in data set [2], the “Percent Remaining (%) 45 min” value is recorded as “BQL” and the “Percent Remaining (%) 60 min” value is “BQL”. Moreover, in data set [2] (recombinant enzyme), the half-life at 0.2 mM was under 5 min.

Take `CCOc1ccc(NC(C)=O)cc1` [Phenacetin]: in data set [1], the Clint is on record as 0.00018 mL/min/pmol, the “Percent Remaining (%) 0 min” value is reported as 100.00%, the “Percent Remaining (%) 15 min” value was determined as 53.02% and the “Percent Remaining (%) 30 min” value came out at 31.01%. In addition, in data set [1], the “Percent Remaining (%) 45 min” value worked out at 20.20% and the “Percent Remaining (%) 60 min” value is 15.08%.
